According to patent publication US20240376099A1, “COMPOUNDS AND COMPOSITIONS AS INHIBITORS OF ENDOSOMAL TOLL-LIKE RECEPTORS” (Novartis AG, priority 2016, published 2024):

Target: T1, TLR7 (Homo sapiens, UniProt Q9NYK1)
T1 construct: Fresh blood was collected from normal human donors; endogenous in cells; host or cells: human PBMCs from fresh donor blood
T1 sequence (Q9NYK1 27-1049): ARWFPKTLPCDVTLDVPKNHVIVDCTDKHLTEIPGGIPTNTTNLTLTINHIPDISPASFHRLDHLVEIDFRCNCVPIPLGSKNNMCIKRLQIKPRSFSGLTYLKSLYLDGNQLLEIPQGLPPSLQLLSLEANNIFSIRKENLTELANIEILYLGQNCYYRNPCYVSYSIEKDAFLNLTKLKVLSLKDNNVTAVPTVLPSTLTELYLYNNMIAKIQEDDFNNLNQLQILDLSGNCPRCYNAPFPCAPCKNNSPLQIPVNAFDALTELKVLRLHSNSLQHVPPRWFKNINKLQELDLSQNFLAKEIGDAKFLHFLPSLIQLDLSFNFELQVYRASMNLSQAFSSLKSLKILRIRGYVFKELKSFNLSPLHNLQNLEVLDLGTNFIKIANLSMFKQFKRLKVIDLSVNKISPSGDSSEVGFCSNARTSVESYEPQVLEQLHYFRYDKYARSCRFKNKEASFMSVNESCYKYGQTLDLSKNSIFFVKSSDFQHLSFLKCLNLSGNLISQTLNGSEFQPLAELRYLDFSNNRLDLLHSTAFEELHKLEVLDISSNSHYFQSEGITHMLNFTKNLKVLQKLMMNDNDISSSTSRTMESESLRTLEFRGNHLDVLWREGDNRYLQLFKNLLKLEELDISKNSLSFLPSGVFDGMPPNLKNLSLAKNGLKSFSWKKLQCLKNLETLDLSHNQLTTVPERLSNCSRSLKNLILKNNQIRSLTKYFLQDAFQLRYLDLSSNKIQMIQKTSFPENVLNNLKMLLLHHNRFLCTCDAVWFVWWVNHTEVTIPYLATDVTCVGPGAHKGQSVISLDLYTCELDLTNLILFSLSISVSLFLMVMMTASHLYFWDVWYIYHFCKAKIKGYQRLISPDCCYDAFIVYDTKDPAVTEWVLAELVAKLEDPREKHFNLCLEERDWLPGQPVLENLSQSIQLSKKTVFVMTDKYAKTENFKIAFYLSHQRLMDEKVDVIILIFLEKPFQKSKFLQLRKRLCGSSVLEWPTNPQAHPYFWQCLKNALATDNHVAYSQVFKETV
Assay: huPBMC TLR7 Antagonist IFNα Assay
Assay type: cell-based
Settings: human PBMCs stimulated with ssRNA40 10 μg/mL (DOTAP), 14-16 hrs; IFNα2b AlphaLISA read-out
Outline: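 Human PBMCs from fresh donor blood (150,000 cells/well) stimulated 14–16 h at 37 °C with DOTAP-complexed ssRNA40 (final 1 μg/ml for TLR8, 10 μg/mL for TLR7) or ODN2216 (final 0.3 μM, TLR9), 0.25% DMSO, ten-point 1/3 compound dilutions. Supernatant IL-6 read by HTRF (TLR8); IFNα by IFNα2b AlphaLISA (TLR7/TLR9).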

Structure (SMILES)	IC50
Cc1cc(N2CCc3c(c(C)nn3CC34CCC(N5C[C@H](C)O[C@@H](C)C5)(CC3)CC4)C2)c2cnn(C)c2n1 [compound 111, (2S,6S)-4-(4-((5-(1,6-dimethyl-1H-pyrazolo[3,4-b]pyridin-4-yl)-3-methyl-4,5,6,7-tetrahydro-1H-pyrazolo[4,3-c]pyridin-1-yl)methyl)bicyclo[2.2.2]octan-1-yl)-2,6-dimethylmorpholine]	28 nM
Cc1cc(N2CCc3c(c(C)nn3CC34CCC(NCC5CCC5)(CC3)CO4)C2)c2cnn(C)c2n1 [compound 112, N-(cyclobutylmethyl)-1-((5-(1,6-dimethyl-1H-pyrazolo[3,4-b]pyridin-4-yl)-3-methyl-4,5,6,7-tetrahydro-1H-pyrazolo[4,3-c]pyridin-1-yl)methyl)-2-oxabicyclo[2.2.2]octan-4-amine]	24 nM
Cc1cc(N2CCc3c(c(C)nn3CC34CCC(N5C[C@@H](C)O[C@H](C)C5)(CC3)CC4)C2)c2cnn(C)c2n1 [compound 113, (2R,6R)-4-(4-((5-(1,6-dimethyl-1H-pyrazolo[3,4-b]pyridin-4-yl)-3-methyl-4,5,6,7-tetrahydro-1H-pyrazolo[4,3-c]pyridin-1-yl)methyl)bicyclo[2.2.2]octan-1-yl)-2,6-dimethylmorpholine]	53 nM
CCNCC(=O)NC12CCC(Cn3nc(C)c4c3CCN(c3cc(C)nc5c3cnn5C)C4)(CC1)CC2 [compound 114, N-(4-((5-(1,6-dimethyl-1H-pyrazolo[3,4-b]pyridin-4-yl)-3-methyl-4,5,6,7-tetrahydro-1H-pyrazolo[4,3-c]pyridin-1-yl)methyl)bicyclo[2.2.2]octan-1-yl)-2-(ethylamino)acetamide]	10 nM
Cc1cc(N2CCc3c(c(C)nn3CC34CCC(NC(=O)CCN)(CC3)CC4)C2)c2cnn(C)c2n1 [compound 115, 3-amino-N-(4-((5-(1,6-dimethyl-1H-pyrazolo[3,4-b]pyridin-4-yl)-3-methyl-4,5,6,7-tetrahydro-1H-pyrazolo[4,3-c]pyridin-1-yl)methyl)bicyclo[2.2.2]octan-1-yl)propanamide]	10 nM
Cc1cc(N2CCc3c(c(C)nn3CC34CCC(N5CC6(COC6)C5)(CC3)CC4)C2)c2cnn(C)c2n1 [compound 116, 6-(4-((5-(1,6-dimethyl-1H-pyrazolo[3,4-b]pyridin-4-yl)-3-methyl-4,5,6,7-tetrahydro-1H-pyrazolo[4,3-c]pyridin-1-yl)methyl)bicyclo[2.2.2]octan-1-yl)-2-oxa-6-azaspiro[3.3]heptane]	9 nM
CN[C@H](C)C(=O)NC12CCC(Cn3nc(C)c4c3CCN(c3cc(C)nc5c3cnn5C)C4)(CC1)CC2 [compound 117, (R)-N-(4-((5-(1,6-dimethyl-1H-pyrazolo[3,4-b]pyridin-4-yl)-3-methyl-4,5,6,7-tetrahydro-1H-pyrazolo[4,3-c]pyridin-1-yl)methyl)bicyclo[2.2.2]octan-1-yl)-2-(methylamino)propanamide]	2 nM
CN[C@@H](C)C(=O)NC12CCC(Cn3nc(C)c4c3CCN(c3cc(C)nc5c3cnn5C)C4)(CC1)CC2 [compound 118]	2 nM
CNCC(=O)NC12CCC(Cn3nc(C)c4c3CCN(c3cc(C)nc5c3cnn5C)C4)(CC1)CC2 [compound 121, N-(4-((5-(1,6-dimethyl-1H-pyrazolo[3,4-b]pyridin-4-yl)-3-methyl-4,5,6,7-tetrahydro-1H-pyrazolo[4,3-c]pyridin-1-yl)methyl)bicyclo[2.2.2]octan-1-yl)-2-(methylamino)acetamide]	5 nM
Cc1cc(N2CCc3c(c(C)nn3CC34CCC(NCC(C)(C)O)(CC3)CC4)C2)c2cnn(C)c2n1 [compound 123, 1-((4-((5-(1,6-dimethyl-1H-pyrazolo[3,4-b]pyridin-4-yl)-3-methyl-4,5,6,7-tetrahydro-1H-pyrazolo[4,3-c]pyridin-1-yl)methyl)bicyclo[2.2.2]octan-1-yl)amino)-2-methylpropan-2-ol]	24 nM
CCNCC(=O)NC12CCC(Cn3nc(C)c4c3CCN(c3cc(C)nc5cn[nH]c35)C4)(CC1)CC2 [compound 124, 2-(ethylamino)-N-(4-((3-methyl-5-(5-methyl-1H-pyrazolo[4,3-b]pyridin-7-yl)-4,5,6,7-tetrahydro-1H-pyrazolo[4,3-c]pyridin-1-yl)methyl)bicyclo[2.2.2]octan-1-yl)acetamide]	1040 nM

More lines, now with the values ahead:

IC50	Structure (SMILES)
4 nM	Cc1cc(N2CCc3c(c(C)nn3CC34CCC(NC(=O)C5CNCCO5)(CC3)CC4)C2)c2cnn(C)c2n1 (stereo not drawn) [compound 125, N-(4-((5-(1,6-dimethyl-1H-pyrazolo[3,4-b]pyridin-4-yl)-3-methyl-4,5,6,7-tetrahydro-1H-pyrazolo[4,3-c]pyridin-1-yl)methyl)bicyclo[2.2.2]octan-1-yl)morpholine-2-carboxamide]
20 nM	CCNCCC(=O)NC12CCC(Cn3nc(C)c4c3CCN(c3cc(C)nc5c3cnn5C)C4)(CC1)CC2 [compound 126, N-(4-((5-(1,6-dimethyl-1H-pyrazolo[3,4-b]pyridin-4-yl)-3-methyl-4,5,6,7-tetrahydro-1H-pyrazolo[4,3-c]pyridin-1-yl)methyl)bicyclo[2.2.2]octan-1-yl)-3-(ethylamino)propanamide]
259 nM	CCNC12CCC(Cn3nc(C)c4c3CCN(c3ccnc(-c5ccccc5)c3)C4)(CC1)CC2 [compound 127, N-ethyl-4-((3-methyl-5-(2-phenylpyridin-4-yl)-4,5,6,7-tetrahydro-1H-pyrazolo[4,3-c]pyridin-1-yl)methyl)bicyclo[2.2.2]octan-1-amine]
6 nM	Cc1cc(N2CCc3c(c(C)nn3CC34CCC(N5CCOC[C@@H]5C)(CC3)CC4)C2)c2cnn(C)c2n1 [compound 128, (S)-4-(4-((5-(1,6-dimethyl-1H-pyrazolo[3,4-b]pyridin-4-yl)-3-methyl-4,5,6,7-tetrahydro-1H-pyrazolo[4,3-c]pyridin-1-yl)methyl)bicyclo[2.2.2]octan-1-yl)-3-methylmorpholine]
8 nM	Cc1cc(N2CCc3c(c(C)nn3CC34CCC(N5CCOC[C@H]5C)(CC3)CC4)C2)c2cnn(C)c2n1 [compound 129, (R)-4-(4-((5-(1,6-dimethyl-1H-pyrazolo[3,4-b]pyridin-4-yl)-3-methyl-4,5,6,7-tetrahydro-1H-pyrazolo[4,3-c]pyridin-1-yl)methyl)bicyclo[2.2.2]octan-1-yl)-3-methylmorpholine]
1330 nM	COCCNC12CCC(Cn3nc(C)c4c3CCN(c3ccnc(-c5ccccc5)c3)C4)(CC1)CC2 [compound 130, N-(2-methoxyethyl)-4-((3-methyl-5-(2-phenylpyridin-4-yl)-4,5,6,7-tetrahydro-1H-pyrazolo[4,3-c]pyridin-1-yl)methyl)bicyclo[2.2.2]octan-1-amine]
3 nM	Cc1cc(N2CCc3c(c(C)nn3CC34CCC(NC(=O)C5CNC5)(CC3)CC4)C2)c2cnn(C)c2n1 [compound 131, N-(4-((5-(1,6-dimethyl-1H-pyrazolo[3,4-b]pyridin-4-yl)-3-methyl-4,5,6,7-tetrahydro-1H-pyrazolo[4,3-c]pyridin-1-yl)methyl)bicyclo[2.2.2]octan-1-yl)azetidine-3-carboxamide]
< 0.508 nM	CCN(C)CC(=O)NC12CCC(Cn3nc(C)c4c3CCN(c3cc(C)nc5c3cnn5C)C4)(CC1)CC2 [compound 132, N-(4-((5-(1,6-dimethyl-1H-pyrazolo[3,4-b]pyridin-4-yl)-3-methyl-4,5,6,7-tetrahydro-1H-pyrazolo[4,3-c]pyridin-1-yl)methyl)bicyclo[2.2.2]octan-1-yl)-2-(ethyl(methyl)amino)acetamide]
1 nM	[2H]C([2H])([2H])N(CC(=O)NC12CCC(Cn3nc(C)c4c3CCN(c3cc(C)nc5c3cnn5C)C4)(CC1)CC2)C([2H])([2H])[2H] [compound 134, 2-(bis(trideuteromethyl)amino)-N-(4-((5-(1,6-dimethyl-1H-pyrazolo[3,4-b]pyridin-4-yl)-3-methyl-4,5,6,7-tetrahydro-1H-pyrazolo[4,3-c]pyridin-1-yl)methyl)bicyclo[2.2.2]octan-1-yl)acetamide]
72 nM	Cc1cc(N2CCc3c(c(C)nn3CC34CCC(NCC5(CO)COC5)(CC3)CC4)C2)c2cnn(C)c2n1 [compound 137, (3-(((4-((5-(1,6-dimethyl-1H-pyrazolo[3,4-b]pyridin-4-yl)-3-methyl-4,5,6,7-tetrahydro-1H-pyrazolo[4,3-c]pyridin-1-yl)methyl)bicyclo[2.2.2]octan-1-yl)amino)methyl)oxetan-3-yl)methanol]
